According to patent publication US20120029187A1, “HALOALKYLSULFONANILIDE DERIVATIVE” (Nissan Chemical Industries, Ltd., priority 2009, published 2012):

Experiments:
Format in all cases: in vivo
barnyardgrass [1] = test: Test Example 1: herbicidal effects in preemergence treatment under submerged conditions; details: dose 2.52 g/a
Summary of the method: (§1)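 Flooded-paddy preemergence assay; EC diluted with water, surface-applied at weed seeding; doses g/a; rice transplanted at 2.5 leaves; 0–5 mortality score after 3 weeks.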

bulrush [2] = test: as above; details: dose 2.52 g/a
Summary of the method: as §1

ducksalad [3] = test: as above; details: dose 2.52 g/a
Summary of the method: as §1

transplanted rice = test: Test Example 1: preemergence treatment under submerged conditions, effect on crop; details: dose 2.52 g/a
Summary of the method: as §1

barnyardgrass [4] = test: Test Example 3: herbicidal effects in soil treatment; details: dose 3.2 g/a
Summary of the method: (§2)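 Seeds were sown in sterilized diluvial soil and covered with about 1.5 cm of soil. Compounds, formulated as emulsifiable concentrates and diluted with water, were sprayed evenly over the soil surface at set doses in g/a. Herbicidal effect was scored on a rating scale three weeks later.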

common ragweed [5] = test: as above; details: dose 3.2 g/a
Summary of the method: as §2

posumbu knotweed [6] = test: as above; details: dose 3.2 g/a
Summary of the method: as §2

water foxtail [7] = test: as above; details: dose 3.2 g/a
Summary of the method: as §2

large crabgrass [8] = test: as above; details: dose 3.2 g/a
Summary of the method: as §2

redroot pigweed [9] = test: as above; details: dose 3.2 g/a
Summary of the method: as §2

giant foxtail [10] = test: as above; details: dose 3.2 g/a
Summary of the method: as §2

velvetleaf [11] = test: as above; details: dose 3.2 g/a
Summary of the method: as §2

common lambsquater [12] = test: as above; details: dose 3.2 g/a
Summary of the method: as §2

Italian ryegrass [13] = test: as above; details: dose 3.2 g/a
Summary of the method: as §2

common chickweed [14] = test: as above; details: dose 3.2 g/a
Summary of the method: as §2

barnyardgrass [15] = test: Test Example 4: herbicidal effect in foliage treatment; details: dose 3.2 g/a, three weeks after the application
Summary of the method: (§3)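 Weeds and crops sown in sterilized diluvial soil under ~1.5 cm cover and grown in greenhouse at 25 to 30° C. At 14 days, water-diluted emulsifiable concentrate sprayed onto foliage at set doses (g/a); herbicidal effect scored on a rating scale three weeks after application.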

common ragweed [16] = test: as above; details: dose 3.2 g/a, three weeks after the application
Summary of the method: as §3

posumbu knotweed [17] = test: as above; details: dose 3.2 g/a, three weeks after the application
Summary of the method: as §3

water foxtail [18] = test: as above; details: dose 3.2 g/a, three weeks after the application
Summary of the method: as §3

large crabgrass [19] = test: as above; details: dose 3.2 g/a, three weeks after the application
Summary of the method: as §3

redroot pigweed [20] = test: as above; details: dose 3.2 g/a, three weeks after the application
Summary of the method: as §3

giant foxtail [21] = test: as above; details: dose 3.2 g/a, three weeks after the application
Summary of the method: as §3

velvetleaf [22] = test: as above; details: dose 3.2 g/a, three weeks after the application
Summary of the method: as §3

common lambsquater [23] = test: as above; details: dose 3.2 g/a, three weeks after the application
Summary of the method: as §3

beadstraw = test: as above; details: dose 3.2 g/a, three weeks after the application
Summary of the method: as §3

Italian ryegrass [24] = test: as above; details: dose 3.2 g/a, three weeks after the application
Summary of the method: as §3

common chickweed [25] = test: as above; details: dose 3.2 g/a, three weeks after the application
Summary of the method: as §3

barnyardgrass [26] = test: Test Example 2: herbicidal effects during the vegetation period under submerged conditions; details: treatment during the vegetation period under submerged conditions; dose 2.52 g/a
Summary of the method: (§4)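 Barnyardgrass, bulrush and ducksalad were co-sown in alluvial soil flooded to 4 cm and grown in a greenhouse at 25 to 30° C. At the 1- or 2-leaf stage, water-diluted emulsifiable concentrates went onto the water surface at set doses (g/a). Herbicidal effect was scored three weeks later on a graded scale.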

bulrush [27] = test: as above; details: treatment during the vegetation period under submerged conditions; dose 2.52 g/a
Summary of the method: as §4

ducksalad [28] = test: as above; details: treatment during the vegetation period under submerged conditions; dose 2.52 g/a
Summary of the method: as §4

| Structure (SMILES) | A: barnyardgrass, herbicidal effect (evaluation scale 0-5) (barnyardgrass [1]) | B: bulrush, herbicidal effect (evaluation scale 0-5) (bulrush [2]) | C: ducksalad, herbicidal effect (evaluation scale 0-5) (ducksalad [3]) | a: transplanted rice, effect on crop (evaluation scale 0-5) (transplanted rice) | herbicidal effect, A: barnyardgrass (barnyardgrass [4]) | herbicidal effect, J: common ragweed (common ragweed [5]) | herbicidal effect, M: posumbu knotweed (posumbu knotweed [6]) | herbicidal effect, G: water foxtail (water foxtail [7]) | herbicidal effect, D: large crabgrass (large crabgrass [8]) | herbicidal effect, K: redroot pigweed (redroot pigweed [9]) | herbicidal effect, E: giant foxtail (giant foxtail [10]) | herbicidal effect, I: velvetleaf (velvetleaf [11]) | herbicidal effect, L: common lambsquater (common lambsquater [12]) | herbicidal effect, H: Italian ryegrass (Italian ryegrass [13]) | herbicidal effect, N: common chickweed (common chickweed [14]) | A: barnyardgrass, herbicidal effect (barnyardgrass [15]) | J: common ragweed, herbicidal effect (common ragweed [16]) | M: posumbu knotweed, herbicidal effect (posumbu knotweed [17]) | G: water foxtail, herbicidal effect (water foxtail [18]) | D: large crabgrass, herbicidal effect (large crabgrass [19]) | also measured |
| --- | --- | --- | --- | --- | --- | --- | --- | --- | --- | --- | --- | --- | --- | --- | --- | --- | --- | --- | --- | --- | --- |
| CCOC(=O)N(c1ccccc1CN1OCCOC1=O)S(=O)(=O)C(F)(F)F [III-2] | 4 (mortality of at least 70% and less than 90%) | 5 (mortality of 90% or above (nearly complete death)) | 5 (mortality of 90% or above (nearly complete death)) | 0 (mortality of less than 5% (almost ineffective)) | 4 (mortality of at least 70% and less than 90%) | 0 (mortality of less than 5% (almost ineffective)) | 4 (mortality of at least 70% and less than 90%) | 5 (mortality of 90% or above (nearly complete death)) | 0 (mortality of less than 5% (almost ineffective)) | 0 (mortality of less than 5% (almost ineffective)) | 0 (mortality of less than 5% (almost ineffective)) | 5 (mortality of 90% or above (nearly complete death)) | 5 (mortality of 90% or above (nearly complete death)) | 3 (mortality of at least 40% and less than 70%) | 3 (mortality of at least 40% and less than 70%) | 4 (mortality of at least 70% and less than 90%) | 4 (mortality of at least 70% and less than 90%) | 4 (mortality of at least 70% and less than 90%) | 5 (mortality of 90% or above (nearly complete death)) | 0 (mortality of less than 5% (almost ineffective)) | K: redroot pigweed, herbicidal effect (redroot pigweed [20]): 3 (mortality of at least 40% and less than 70%); E: giant foxtail, herbicidal effect (giant foxtail [21]): 0 (mortality of less than 5% (almost ineffective)); I: velvetleaf, herbicidal effect (velvetleaf [22]): 4 (mortality of at least 70% and less than 90%); L: common lambsquater, herbicidal effect (common lambsquater [23]): 3 (mortality of at least 40% and less than 70%); O: beadstraw, herbicidal effect (beadstraw): 3 (mortality of at least 40% and less than 70%); H: Italian ryegrass, herbicidal effect (Italian ryegrass [24]): 3 (mortality of at least 40% and less than 70%); N: common chickweed, herbicidal effect (common chickweed [25]): 3 (mortality of at least 40% and less than 70%); A: barnyardgrass, herbicidal effect (evaluation scale 0-5) (barnyardgrass [26]): 3 (mortality of at least 40% and less than 70%); B: bulrush, herbicidal effect (evaluation scale 0-5) (bulrush [27]): 5 (mortality of 90% or above (nearly complete death)); C: ducksalad, herbicidal effect (evaluation scale 0-5) (ducksalad [28]): 4 (mortality of at least 70% and less than 90%) |
| CCOC(=O)N(c1ccccc1CN1OCC(C)OC1=O)S(=O)(=O)C(F)(F)F (stereo not drawn) [III-4] | 5 (mortality of 90% or above (nearly complete death)) | 5 (mortality of 90% or above (nearly complete death)) | 5 (mortality of 90% or above (nearly complete death)) | 0 (mortality of less than 5% (almost ineffective)) | 5 (mortality of 90% or above (nearly complete death)) | 3 (mortality of at least 40% and less than 70%) | 5 (mortality of 90% or above (nearly complete death)) | 5 (mortality of 90% or above (nearly complete death)) | 5 (mortality of 90% or above (nearly complete death)) | 3 (mortality of at least 40% and less than 70%) | 5 (mortality of 90% or above (nearly complete death)) | 5 (mortality of 90% or above (nearly complete death)) | 5 (mortality of 90% or above (nearly complete death)) | 5 (mortality of 90% or above (nearly complete death)) | 4 (mortality of at least 70% and less than 90%) | 5 (mortality of 90% or above (nearly complete death)) | 4 (mortality of at least 70% and less than 90%) | 3 (mortality of at least 40% and less than 70%) | 5 (mortality of 90% or above (nearly complete death)) | 3 (mortality of at least 40% and less than 70%) | K: redroot pigweed, herbicidal effect (redroot pigweed [20]): 0 (mortality of less than 5% (almost ineffective)); E: giant foxtail, herbicidal effect (giant foxtail [21]): 4 (mortality of at least 70% and less than 90%); I: velvetleaf, herbicidal effect (velvetleaf [22]): 3 (mortality of at least 40% and less than 70%); L: common lambsquater, herbicidal effect (common lambsquater [23]): 1 (mortality of at least 5% and less than 20%); O: beadstraw, herbicidal effect (beadstraw): 3 (mortality of at least 40% and less than 70%); H: Italian ryegrass, herbicidal effect (Italian ryegrass [24]): 1 (mortality of at least 5% and less than 20%); N: common chickweed, herbicidal effect (common chickweed [25]): 5 (mortality of 90% or above (nearly complete death)); A: barnyardgrass, herbicidal effect (evaluation scale 0-5) (barnyardgrass [26]): 5 (mortality of 90% or above (nearly complete death)); B: bulrush, herbicidal effect (evaluation scale 0-5) (bulrush [27]): 5 (mortality of 90% or above (nearly complete death)); C: ducksalad, herbicidal effect (evaluation scale 0-5) (ducksalad [28]): 5 (mortality of 90% or above (nearly complete death)) |
